Tested on: Con A-induced hepatitis
Assay: Concanavalin A (Con A) hepatitis model of immune-mediated liver injury
Format: in vivo, mouse
Settings: for Con A-induced liver damage (plasma ALT levels): 1, 10, 20 mg/kg ip 1 hour before Con A
Protocol: To determine whether mirtazapine treatment alters subsequent immune-mediated liver injury, we used the mouse model of concanavalin (Con A) hepatitis. The Con A model is a widely used and well characterized model of immune-mediated T cell-driven liver injury^16, 17. Mice were treated with mirtazapine 20 mg/kg ip and 1 hour later Con A (Sigma, St. Louis, Mo.) or PBS vehicle was injected intravenously at a dose of 13.5 mg/kg^17. Mice were sacrificed 16 hours following Con A administration and hepatitis determined biochemically (ALT) and histologically (H & E staining)^17, 18. In addition, to further characterize the effects of mirtazapine in the Con A model, we performed a mirtazapine dose response study with mirtazapine doses of 1, 10, and 20 mg/kg ip given 1 hour prior to Con A treatment.
To assess liver injury, plasma alanine aminotransferase (ALT) activity was measured (Roche-Hitachi Modular-P800 apparatus; Roche, Mannheim, Germany). Additionally, formalin-fixed liver tissue slices were stained with Hematoxylin and Eosin (H&E) for microscopic examination. Extent of liver parenchymal necrosis was quantitated as previously described, using an Olympus XC10 camera (acquired using the Olympus VS-ASW software package; original magnification ×400). Images were later processed and selected images obtained at 25 or 50% magnification (corresponding to magnifications of 100x and 200X, respectively).
Hepatic CXCL10/IP-10, CXCL9/MIG, ICAM-1 and VCAM-1 expression were determined using immunohistochemistry, as previously described. Briefly, following initial deparaffinization and rehydration of tissue sections, antigen retrieval was performed in lx Citrate buffer, PH 6.0 (Abcam) for IP-10/CXCL9 and MIG/CXCL9, or in 1X EDTA buffer pH 8.0 for ICAM1 and VCAM-1. In all cases slides were incubated in antigen retrieval buffer at 95-100° C. for 20 minutes. Endogenous peroxidase and endogenous biotin were blocked using 3% H2O2 and an avidin/biotin blocking kit (Vector Laboratories, Burlingame, Calif.) respectively, and then incubated with primary antibodies (Rabbit IgG polyclonal against MIG at 1:200; polyclonal goat IgG against IP-10/CXCL10 at 1:40; rat monoclonal against ICAM-1 clone YN1/1.7.4 at 1:200; and rabbit monoclonal against VCAM1 clone EPR5047 at 1:1000) overnight at 4° C. This was followed by incubation with biotinylated rabbit anti-goat, goat-anti rat or goat anti-rabbit secondary antibodies (at 1:150) for 1 hour at room temperature (Vector Labs). Negative staining controls were performed by omission of primary antibody, or by omission of both primary and secondary antibodies. […] This was followed by incubation with Vectastain Elite ABC kit (Vector Laboratories) for 30 min at room temperature. Color was developed with Nova Red Chromogen (ImmPACT NovaRED Peroxidase Substrate, Vector Lab, Burlingame, Calif.), after which sections were counterstained with hematoxylin (EMD Millipore). Mounted slides were converted to virtual slides with a BX61 VS virtual microscopy system equipped with an XC10 camera and VS ASW software (Olympus) (original magnification ×400). For ICAM-1, VCAM1, CXCL9/Mig, and CXCL10/IP10 expression, all scanned virtual slides of the sections were examined in a blinded fashion, and expression patterns evaluated and described.
To delineate the effect of mirtazapine treatment on hepatic cytokine/chemokine expression a Luminex® assay was used using methods as previously described. Livers were collected 5 hours after mirtazapine or vehicle treatment. A panel of mouse cytokines/chemokines were simultaneously measured in liver homogenate samples using a mouse MILLIPLEX kit (Millipore, USA) according to the manufacturer's protocol. The multiplexing analysis was performed using the Luminex 100 system (Luminex®, USA; Eve Technologies Corporation, Calgary, Canada). Total protein concentrations in liver homogenates were quantified using a BCA Protein Assay kit (Pierce, USA) according to manufacturers instructions. […]

CN1CCN2c3ncccc3Cc3ccccc3C2C1 (stereo not shown) [Mirtazapine]
Histological liver damage (liver cell necrosis, H&E) (20 mg/kg, 16 hrs post-Con A): only a minimal hepatocyte damage | Con A-induced liver damage (plasma ALT levels) (16 hrs post-Con A): markedly attenuated | Con A-induced liver damage (plasma ALT levels) (16 hrs post-Con A, listed as mirtazapine): striking reduction in liver damage | Hepatic CXCL10 levels (Con A treated mice, 20 mg/kg): significantly augmented | Hepatic IL-10 levels (Con A treated mice, 20 mg/kg): significantly higher | Hepatic TNFα and IFNγ levels (Con A treated mice, 20 mg/kg): significantly reduced | Hepatic levels of IL-6, IL-9 and LIF (Con A treated mice, 20 mg/kg): significantly reduced | Hepatic levels of the chemokines CXCL9, CXCL2, CXCL1, CCL11 and CCL2 (Con A treated mice, 20 mg/kg): reduced | Con A-induced increases in ICAM-1 expression in hepatic central veins and sinusoidal endothelium (IHC, 20 mg/kg): almost completely prevented | Con A-induced increases in hepatic VCAM-1 expression (IHC, 20 mg/kg): minimal effect

— US11510928B2, “Use of mirtazapine in the treatment of inflammatory disorders, autoimmune disease and PBC” (UTI Limited Partnership, priority 2017, dated 2022)
